Measured values from patent publication US10364245B2 (CHIESI FARMACEUTICI S.p.A., priority 2017, dated 2019).
Structures can show the parent of a compound that is named as a salt.

Key:
p38 alpha = target: T1, p38 alpha (Homo sapiens, UniProt Q16539); test: P38 alpha enzyme inhibition assay (Alphascreen kinase activity assay); type: biochemical; settings: 100 pM p38 alpha, 2 hours preincubation at 25° C., 250 μM ATP, ATF-2 fusion protein; read-out: p38α inhibition
T1 construct: purchased Invitrogen PV3304
T1 sequence (Q16539 whole entry, the tested form may be a part): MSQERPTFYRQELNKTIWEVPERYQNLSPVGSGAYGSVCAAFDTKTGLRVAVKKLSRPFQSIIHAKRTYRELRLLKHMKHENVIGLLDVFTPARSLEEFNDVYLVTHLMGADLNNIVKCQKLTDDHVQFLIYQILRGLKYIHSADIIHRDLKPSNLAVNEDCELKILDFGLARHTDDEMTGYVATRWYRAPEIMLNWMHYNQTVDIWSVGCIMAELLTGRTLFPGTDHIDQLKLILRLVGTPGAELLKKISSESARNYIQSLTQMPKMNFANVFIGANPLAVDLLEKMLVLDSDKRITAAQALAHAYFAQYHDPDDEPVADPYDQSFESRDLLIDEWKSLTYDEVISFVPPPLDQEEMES
Outline: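 100 pM p38 alpha preincubated 2 h at 25 °C with compound and 0.3 μg/ml ATF-2 fusion substrate (HEPES pH 7.5, MgCl2, 1% DMSO). Reaction started with 250 μM ATP, run 1 h at 25 °C, stopped with EDTA; phospho-ATF2 detected by AlphaScreen luminescence. IC50 from concentration-response curves.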

[1] = tested on: Peripheral Blood Mononuclear Cells (PBMCs), TNFα release; test: LPS-stimulated PBMC TNFα release assay; type: cell-based; settings: human PBMC, LPS (10 ng/ml), 18 h, compound 1 h before LPS; read-out: LPS-stimulated PBMC TNFα release inhibition
Outline: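 Human PBMCs from healthy donors, serum-starved 3 h, then pre-incubated 1 h at 37 °C with compound in 1% FBS medium before LPS (10 ng/ml) for 18 h. Supernatant TNFα measured by MSD; IC50 from dose-response as % inhibition of control, at least three experiments.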

| Compound | IC50 (p38 alpha) | IC50 [1] |
| --- | --- | --- |
| CN(C)C(C)(C)CNC(=O)c1nc(NC(=O)N[C@H]2CC[C@@H](Oc3ccc4nnc(C5(C)CCCC5)n4c3)c3ccccc32)cc(C(C)(C)C)n1 [Example 183, 4-(tert-butyl)-N-(2-(dimethylamino)-2-methylpropyl)-6-(3-((1S,4R)-4-((3-(1-methylcyclopentyl)-[1,2,4]triazolo[4,3-a]pyridin-6-yl)oxy)-1,2,3,4-tetrahydronaphthalen-1-yl)ureido)pyrimidine-2-carboxamide] | < 1 nM | 1 to 5 nM |
| CC(C)(C)c1cc(NC(=O)N[C@H]2CC[C@@H](Oc3ccc4nnc(C5(C)CCCC5)n4c3)c3ccccc32)nc(C(=O)NCCCN2CCOCC2)n1 [Example 184, 4-(tert-Butyl)-6-(3-((1S,4R)-4-((3-(1-methylcyclopentyl)-[1,2,4]triazolo[4,3-a]pyridin-6-yl)oxy)-1,2,3,4-tetrahydronaphthalen-1-yl)ureido)-N-(3-morpholinopropyl)-pyrimidine-2-carboxamide formate salt] | < 1 nM | < 1 nM |
| CN(C)CCNC(=O)c1cc(NC(=O)N[C@H]2CC[C@@H](Oc3ccc4nnc(C(C)(C)C)n4c3)c3ccccc32)cc(C(C)(C)C)n1 [Example 186, 6-(tert-butyl)-4-(3-((1S,4R)-4-((3-(tert-butyl)-[1,2,4]triazolo[4,3-a]pyridin-6-yl)oxy)-1,2,3,4-tetrahydronaphthalen-1-yl)ureido)-N-(2-(dimethylamino)ethyl)-picolinamide] | < 1 nM | < 1 nM |
| CC(C)(C)c1cc(NC(=O)N[C@H]2CC[C@@H](Oc3ccc4nnc(C(C)(C)C)n4c3)c3ccccc32)cc(C(=O)NCCCN2CCOCC2)n1 [Example 187, 6-(tert-butyl)-4-(3-((1S,4R)-4-((3-(tert-butyl)-[1,2,4]triazolo[4,3-a]pyridin-6-yl)oxy)-1,2,3,4-tetrahydronaphthalen-1-yl)ureido)-N-(3-morpholinopropyl)-picolinamide] | 1 to 10 nM | 1 to 5 nM |
| CN(CCO)CCNC(=O)c1cc(NC(=O)N[C@H]2CC[C@@H](Oc3ccc4nnc(C(C)(C)C)n4c3)c3ccccc32)cc(C(C)(C)C)n1 [Example 188, 6-(tert-butyl)-4-(3-((1S,4R)-4-((3-(tert-butyl)-[1,2,4]triazolo[4,3-a]pyridin-6-yl)oxy)-1,2,3,4-tetrahydronaphthalen-1-yl)ureido)-N-(2-((2-hydroxyethyl)(methyl)-amino)ethyl)picolinamide] | < 1 nM | 1 to 5 nM |
| CC(C)(C)c1cc(NC(=O)N[C@H]2CC[C@@H](Oc3ccc4nnc(C(C)(C)C)n4c3)c3ccccc32)cc(C(=O)NCCN2CCCOCC2)n1 [Example 189, N-(2-(1,4-oxazepan-4-yl)ethyl)-6-(tert-butyl)-4-(3-((1S,4R)-4-((3-(tert-butyl)-[1,2,4]triazolo[4,3-a]pyridin-6-yl)oxy)-1,2,3,4-tetrahydronaphthalen-1-yl)ureido)picolinamide] | 1 to 10 nM | 1 to 5 nM |
| COCC(C)(C)c1nnc2ccc(O[C@@H]3CC[C@H](NC(=O)Nc4cc(C(=O)NCCN(C)C)nc(C(C)(C)C)c4)c4ccccc43)cn12 [Example 190, 6-(tert-butyl)-N-(2-(dimethylamino)ethyl)-4-(3-((1S,4R)-4-((3-(1-methoxy-2-methylpropan-2-yl)-[1,2,4]triazolo[4,3-a]pyridin-6-yl)oxy)-1,2,3,4-tetrahydronaphthalen-1-yl)ureido)picolinamide] | < 1 nM | 1 to 5 nM |
| CCN(C)CCNC(=O)c1cc(NC(=O)N[C@H]2CC[C@@H](Oc3ccc4nnc(C(C)(C)C)n4c3)c3ccccc32)cc(C(C)(C)C)n1 [Example 191, 6-(tert-butyl)-4-(3-((1S,4R)-4-((3-(tert-butyl)-[1,2,4]triazolo[4,3-a]pyridin-6-yl)oxy)-1,2,3,4-tetrahydronaphthalen-1-yl)ureido)-N-(2-(ethyl(methyl)amino)-ethyl)picolinamide] | 1 to 10 nM | 1 to 5 nM |
| COCCN(C)CCNC(=O)c1cc(NC(=O)N[C@H]2CC[C@@H](Oc3ccc4nnc(C(C)(C)C)n4c3)c3ccccc32)cc(C(C)(C)C)n1 [Example 192, 6-(tert-butyl)-4-(3-((1S,4R)-4-((3-(tert-butyl)-[1,2,4]triazolo[4,3-a]pyridin-6-yl)oxy)-1,2,3,4-tetrahydronaphthalen-1-yl)ureido)-N-(2-((2-methoxyethyl)(methyl)-amino)ethyl)picolinamide] | 1 to 10 nM | 1 to 5 nM |
| COC1CN(CCNC(=O)c2cc(NC(=O)N[C@H]3CC[C@@H](Oc4ccc5nnc(C(C)(C)C)n5c4)c4ccccc43)cc(C(C)(C)C)n2)C1 [Example 193, 6-(tert-butyl)-4-(3-((1S,4R)-4-((3-(tert-butyl)-[1,2,4]triazolo[4,3-a]pyridin-6-yl)oxy)-1,2,3,4-tetrahydronaphthalen-1-yl)ureido)-N-(2-(3-methoxyazetidin-1-yl)ethyl)picolinainide] | 1 to 10 nM | 1 to 5 nM |
| CC(C)(C)c1cc(NC(=O)N[C@H]2CC[C@@H](Oc3ccc4nnc(C(C)(C)C)n4c3)c3ccccc32)cc(C(=O)NCCN2CC[C@H](O)C2)n1 [Example 195, 6-(tert-butyl)-4-(3-((1S,4R)-4-((3-(tert-butyl)-[1,2,4]triazolo[4,3-a]pyridin-6-yl)oxy)-1,2,3,4-tetrahydronaphthalen-1-yl)ureido)-N-(2-((S)-3-hydroxypyrrolidin-1-yl)ethyl)picolinamide] | < 1 nM | > 5 nM |
| COCC(C)(C)c1nnc2ccc(O[C@@H]3CC[C@H](NC(=O)Nc4cc(C(=O)NCC(C)(C)N(C)C)nc(C(C)(C)C)c4)c4ccccc43)cn12 [Example 196, 6-(tert-butyl)-N-(2-(dimethylamino)-2-methylpropyl)-4-(3-((1S,4R)-4-((3-(1-methoxy-2-methylpropan-2-yl)-[1,2,4]triazolo[4,3-a]pyridin-6-yl)oxy)-1,2,3,4-tetrahydronaphthalen-1-yl)ureido)picolinamide] | 1 to 10 nM | > 5 nM |
| CC(C)(C)c1cc(NC(=O)N[C@H]2CC[C@@H](Oc3ccc4nnc(C(C)(C)C)n4c3)c3ccccc32)cc(C(=O)NCCN2CC(O)C2)n1 [Example 197, 6-(tert-butyl)-4-(3-((1S,4R)-4-((3-(tert-butyl)-[1,2,4]triazolo[4,3-a]pyridin-6-yl)oxy)-1,2,3,4-tetrahydronaphthalen-1-yl)ureido)-N-(2-(3-hydroxyazetidin-1-yl)ethyl)picolinamide] | < 1 nM | > 5 nM |
| CN1CCN(C(C)(C)c2nnc3ccc(O[C@@H]4CC[C@H](NC(=O)Nc5cc(CO)nc(C(C)(C)C)c5)c5ccccc54)cn23)CC1 [Example 198, 1-(2-(tert-butyl)-6-(hydroxymethyl)pyridin-4-yl)-3-((1S,4R)-4-((3-(2-(4-methylpiperazin-1-yl)propan-2-yl)-[1,2,4]triazolo[4,3-a]pyridin-6-yl)oxy)-1,2,3,4-tetrahydronaphthalen-1-yl)urea] | < 1 nM | > 5 nM |
| CN(C)CCNC(=O)c1cc(NC(=O)N[C@H]2CC[C@@H](Oc3ccc4nnc(C(C)(C)N5CCN(C)CC5)n4c3)c3ccccc32)cc(C(C)(C)C)n1 [Example 199, 6-(tert-Butyl)-N-(2-(dimethylamino)ethyl)-4-(3-((1S,4R)-4-((3-(2-(4-methylpiperazin-1-yl)propan-2-yl)-[1,2,4]triazolo[4,3-a]pyridin-6-yl)oxy)-1,2,3,4-tetrahydronaphthalen-1-yl)ureido)picolinamide formate salt] | 1 to 10 nM | > 5 nM |
| CN1CCN(C(C)(C)c2nnc3ccc(O[C@@H]4CC[C@H](NC(=O)Nc5cc(C(=O)NCCO)nc(C(C)(C)C)c5)c5ccccc54)cn23)CC1 [Example 200, 6-(tert-Butyl)-N-(2-hydroxyethyl)-4-(3-((1S,4R)-4-((3-(2-(4-methylpiperazin-1-yl)propan-2-yl)-[1,2,4]triazolo[4,3-a]pyridin-6-yl)oxy)-1,2,3,4-tetrahydronaphthalen-1-yl)ureido)picolinamide formate salt] | < 1 nM | > 5 nM |
| CC[C@H](C)c1nnc2ccc(O[C@@H]3CC[C@H](NC(=O)Nc4cc(C(=O)NCCN(C)C)nc(C(C)(C)C)c4)c4ccccc43)cn12 [Example 201, 6-(tert-Butyl)-4-(3-((1S,4R)-4-((3-((S)-sec-butyl)-[1,2,4]triazolo[4,3-a]pyridin-6-yl)oxy)-1,2,3,4-tetrahydronaphthalen-1-yl)ureido)-N-(2-(dimethylamino)ethyl)-picolinamide formate salt] | < 1 nM | 1 to 5 nM |
| CC[C@H](C)c1nnc2ccc(O[C@@H]3CC[C@H](NC(=O)Nc4cc(C(=O)NCC(C)(C)N(C)C)nc(C(C)(C)C)c4)c4ccccc43)cn12 [Example 202, 6-(tert-Butyl)-4-(3-((1S,4R)-4-((3-((S)-sec-butyl)-[1,2,4]triazolo[4,3-a]pyridin-6-yl)oxy)-1,2,3,4-tetrahydronaphthalen-1-yl)ureido)-N-(2-(dimethylamino)-2-methylpropyl)-picolinamide formate salt] | 1 to 10 nM | 1 to 5 nM |
| CCN(CC)c1nnc2ccc(O[C@@H]3CC[C@H](NC(=O)Nc4cc(C(=O)NCC(C)(C)N(C)C)nc(C(C)(C)C)c4)c4ccccc43)cn12 [Example 204, 6-(tert-Butyl)-4-(3-((1S,4R)-4-((3-(diethylamino)-[1,2,4]triazolo[4,3-a]pyridin-6-yl)oxy)-1,2,3,4-tetrahydronaphthalen-1-yl)ureido)-N-(2-(dimethylamino)-2-methylpropyl)-picolinamide formate salt] | < 1 nM | 1 to 5 nM |
